The source made the active and inactive calls.
Tests used:
[1] = target: T1, High affinity choline transporter 1 (Homo sapiens, UniProt Q9GZV3); experiment: CHT inhibitors, dose response, cell-based, 5-point CRC, membrane potential dye (AID 504840); format: functional
T1 sequence (Q9GZV3 whole entry): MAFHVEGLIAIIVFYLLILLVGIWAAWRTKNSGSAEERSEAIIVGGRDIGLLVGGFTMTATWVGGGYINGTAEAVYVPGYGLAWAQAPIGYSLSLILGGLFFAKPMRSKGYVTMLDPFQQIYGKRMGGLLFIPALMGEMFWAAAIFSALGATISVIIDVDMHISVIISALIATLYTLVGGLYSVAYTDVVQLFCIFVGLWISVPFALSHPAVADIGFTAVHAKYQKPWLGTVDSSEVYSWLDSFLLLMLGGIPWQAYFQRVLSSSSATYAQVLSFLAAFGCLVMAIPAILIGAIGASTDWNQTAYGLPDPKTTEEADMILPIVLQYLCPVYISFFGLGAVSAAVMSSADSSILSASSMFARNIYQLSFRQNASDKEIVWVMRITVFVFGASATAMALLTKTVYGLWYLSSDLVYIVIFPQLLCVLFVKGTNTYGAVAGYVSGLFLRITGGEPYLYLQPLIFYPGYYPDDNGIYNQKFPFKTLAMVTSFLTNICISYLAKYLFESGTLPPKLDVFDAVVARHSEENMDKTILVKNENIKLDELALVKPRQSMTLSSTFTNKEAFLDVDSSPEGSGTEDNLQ

INS1 = experiment: beta cell apoptosis inhibitors, cytokine rescue, dose response, luminescence, retest (AID 449756); format: functional, cell-based; details: Rattus norvegicus;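 further: cell death triggered by IL-1 beta plus TNF-alpha plus IFN-gamma mixture; protective hits raise ATP signal compared with cytokine alone wells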
[2] = inhibitors of clade B AD8 Env fusion, dose response, cell-based, cherry-pick (AID 652062); format: functional;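 further: luciferase signal from cell-cell fusion driven by HIV-1 clade B AD8 Env; potency is for inhibitors of fusion seen as a drop in luminescence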
Leucine aminopeptidase = target: T2, Leucine aminopeptidase (Plasmodium falciparum 3D7, UniProt Q8IL11); experiment: P. falciparum M17LAP inhibitors, primary screen, biochemical, fluorogenic H-Leu-NHMec substrate, 1536-well (AID 1619); format: functional
T2 sequence (Q8IL11 whole entry): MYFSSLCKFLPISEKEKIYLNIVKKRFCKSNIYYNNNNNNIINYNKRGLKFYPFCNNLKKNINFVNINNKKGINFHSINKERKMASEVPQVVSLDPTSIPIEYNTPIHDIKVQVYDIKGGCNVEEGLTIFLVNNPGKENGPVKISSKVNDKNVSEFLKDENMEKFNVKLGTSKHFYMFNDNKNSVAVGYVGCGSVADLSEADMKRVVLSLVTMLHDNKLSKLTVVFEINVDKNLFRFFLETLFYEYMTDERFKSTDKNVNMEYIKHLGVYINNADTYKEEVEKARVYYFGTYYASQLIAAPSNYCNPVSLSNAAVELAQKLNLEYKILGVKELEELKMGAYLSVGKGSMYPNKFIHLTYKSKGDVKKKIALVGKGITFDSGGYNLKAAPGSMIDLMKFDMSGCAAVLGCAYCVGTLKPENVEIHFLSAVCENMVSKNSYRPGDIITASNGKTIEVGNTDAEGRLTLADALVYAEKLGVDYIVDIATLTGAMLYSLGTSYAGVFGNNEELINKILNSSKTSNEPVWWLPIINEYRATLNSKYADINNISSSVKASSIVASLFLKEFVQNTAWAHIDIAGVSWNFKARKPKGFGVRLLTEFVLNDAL

Nonstructural protein 1 = Nonstructural protein 1 (Influenza A virus, UniProt Q194T2); format: functional, Influenza A virus (A/California/07/2009(H1N1))
[3] = target: T3, Rac GTPase-activating protein 1 (Homo sapiens, UniProt Q9H0H5); experiment: MgcRacGAP GTPase-activating activity inhibitors, confirmation, biochemical, ADP Hunter fluorescence, primary and confirmatory (AID 624330); format: functional
T3 sequence (Q9H0H5 whole entry): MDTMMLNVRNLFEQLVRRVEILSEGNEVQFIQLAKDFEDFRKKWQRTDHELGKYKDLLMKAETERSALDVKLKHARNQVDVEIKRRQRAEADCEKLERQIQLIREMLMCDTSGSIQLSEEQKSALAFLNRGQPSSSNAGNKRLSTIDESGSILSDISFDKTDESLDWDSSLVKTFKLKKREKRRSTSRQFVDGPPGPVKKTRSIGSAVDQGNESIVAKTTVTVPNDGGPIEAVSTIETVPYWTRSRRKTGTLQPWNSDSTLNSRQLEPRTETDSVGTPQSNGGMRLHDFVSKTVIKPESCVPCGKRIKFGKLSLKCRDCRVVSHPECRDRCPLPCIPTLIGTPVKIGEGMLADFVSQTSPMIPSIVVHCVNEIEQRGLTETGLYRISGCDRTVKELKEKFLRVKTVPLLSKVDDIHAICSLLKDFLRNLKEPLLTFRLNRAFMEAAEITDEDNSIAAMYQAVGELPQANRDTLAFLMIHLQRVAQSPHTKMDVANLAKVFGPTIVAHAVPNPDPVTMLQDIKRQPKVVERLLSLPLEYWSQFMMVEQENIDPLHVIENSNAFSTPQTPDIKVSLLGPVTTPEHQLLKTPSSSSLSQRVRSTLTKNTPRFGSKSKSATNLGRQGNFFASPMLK

[4] = target: FAD-linked sulfhydryl oxidase ALR (Homo sapiens, UniProt P55789); experiment: inhibitors of human ALR sulfhydryl oxidase, dose response, biochemical, H2O2 detection, luminescence, cherry-pick (AID 493248)
[5] = Luminescence Cell-Based Dose Retest to Confirm Inhibitors of Cancer Stem Cells. [Related pubchem assays (depositor defined):AID2717, AID2721]; format: functional; details: Homo sapiens
[6] = target: T4, Ubiquitin-conjugating enzyme E2 N (Homo sapiens, UniProt P61088); format: functional;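 further: Dose-response confirmation in a TR-FRET assay detecting UBC13-driven polyubiquitin chain formation, inhibition measured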
T4 sequence (P61088 whole entry): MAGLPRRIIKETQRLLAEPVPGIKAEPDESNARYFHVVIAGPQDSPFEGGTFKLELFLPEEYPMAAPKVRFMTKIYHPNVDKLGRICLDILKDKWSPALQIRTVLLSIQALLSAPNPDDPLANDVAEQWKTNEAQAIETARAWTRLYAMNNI

Cytochrome P450 2D6 = Cytochrome P450 2D6 (Homo sapiens, UniProt P10635);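 further: CYP2D6 member of a cytochrome P450 panel assay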
[7] = target: T5, Carboxy-terminal domain RNA polymerase II polypeptide A small phosphatase 1 (Homo sapiens, UniProt Q9GZU7); experiment: inhibitors of CTDSP1, concentration-response testing, biochemical assay, absorbance-based, actives from ultra-high-throughput screening (AID 540297); format: functional
T5 sequence (Q9GZU7 whole entry): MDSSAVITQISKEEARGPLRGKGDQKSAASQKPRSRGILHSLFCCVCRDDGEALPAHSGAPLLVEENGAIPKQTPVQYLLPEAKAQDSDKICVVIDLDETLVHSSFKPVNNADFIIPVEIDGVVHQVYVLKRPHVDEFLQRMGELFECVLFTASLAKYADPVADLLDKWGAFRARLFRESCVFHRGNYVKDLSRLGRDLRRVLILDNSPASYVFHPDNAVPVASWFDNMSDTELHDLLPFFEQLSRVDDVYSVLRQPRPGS

[8] = target: T6, Polyadenylate-binding protein 1 (Homo sapiens, UniProt P11940); experiment: PABP1 MLLE–PAM2 binding inhibitor potency, dose response, biochemical, fluorescence polarization, FITC-PAM2 peptide (AID 602259); format: functional; details: read-out: IC50_Mean
[9] = target: T6, Polyadenylate-binding protein 1; experiment: PABP1 MLLE–PAM2 interaction inhibitors, dose response, miRNA deadenylation inhibitor project, biochemical, fluorescence polarization, Cy5-PAM2 peptide, secondary (AID 602260); format: functional; details: read-out: IC50_Mean
[10] = cytotoxicity in HEK-293T cells, dose response, cytotoxicity control for TCR NF-kB inhibitor project, luminescence, T-cell screen hits (AID 489026); format: functional, cell-based;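 further: cells exposed to compound about 14 hours before the viability readout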
[11] = target: T7, RNA-binding protein pos-1 (Caenorhabditis elegans, UniProt G5EF15); experiment: inhibitors of POS-1/mex-3 RNA binding, dose response, biochemical, fluorescence polarization (AID 1964);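 further: purified POS-1 fused to maltose binding protein made in E. coli; potency of compounds blocking POS-1 binding to fluorescent RNA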
T7 sequence (G5EF15 whole entry): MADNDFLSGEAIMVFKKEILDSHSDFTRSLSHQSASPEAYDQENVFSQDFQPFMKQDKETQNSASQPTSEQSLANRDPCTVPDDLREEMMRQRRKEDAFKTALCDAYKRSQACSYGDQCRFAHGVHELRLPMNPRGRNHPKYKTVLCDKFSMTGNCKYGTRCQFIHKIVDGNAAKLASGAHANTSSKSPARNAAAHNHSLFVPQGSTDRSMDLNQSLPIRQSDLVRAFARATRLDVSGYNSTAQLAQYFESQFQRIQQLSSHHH

[12] = inhibitors of HIV Env-driven cell fusion, dose response, cherry-pick (AID 652057); format: functional, cell-based
[13] = P. falciparum Dd2 growth inhibitors, dose response, SYBR Green, cherry-picked samples (AID 1159567); format: functional, cell-based
[14] = P. falciparum ATP4 D1247Y mutant growth inhibitors, dose response, NITD609-resistant line, SYBR Green, dry powder (AID 1159571); format: functional, cell-based;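 further: parasites synchronized at ring stage by sorbitol before testing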
[15] = P. falciparum Dd2 growth inhibitors, dose response, SYBR Green, dry powder samples (AID 1159566); format: functional, cell-based;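 further: potency for growth inhibition with lower SYBR green DNA signal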
[16] = P. falciparum 3D7-ScDHODH growth inhibitors, dose response, SYBR Green, dry powder samples (AID 1159570); format: functional, cell-based;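 further: parasite growth measured after 72 hours of compound exposure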

FAD-linked sulfhydryl oxidase ALR, sequence (P55789 whole entry): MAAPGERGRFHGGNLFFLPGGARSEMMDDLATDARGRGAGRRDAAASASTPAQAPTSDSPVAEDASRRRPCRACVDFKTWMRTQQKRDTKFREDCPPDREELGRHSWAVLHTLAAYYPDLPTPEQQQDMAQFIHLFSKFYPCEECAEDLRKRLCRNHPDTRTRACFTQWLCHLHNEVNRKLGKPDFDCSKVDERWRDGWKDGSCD
Nonstructural protein 1, sequence (Q194T2 whole entry): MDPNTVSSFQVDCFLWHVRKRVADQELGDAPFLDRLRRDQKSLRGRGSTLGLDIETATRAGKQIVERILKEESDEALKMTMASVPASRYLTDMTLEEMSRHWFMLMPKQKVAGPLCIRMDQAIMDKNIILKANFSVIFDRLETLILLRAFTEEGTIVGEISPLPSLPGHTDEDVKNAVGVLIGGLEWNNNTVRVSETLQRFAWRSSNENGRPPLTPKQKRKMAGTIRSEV
T6 sequence (P11940 whole entry): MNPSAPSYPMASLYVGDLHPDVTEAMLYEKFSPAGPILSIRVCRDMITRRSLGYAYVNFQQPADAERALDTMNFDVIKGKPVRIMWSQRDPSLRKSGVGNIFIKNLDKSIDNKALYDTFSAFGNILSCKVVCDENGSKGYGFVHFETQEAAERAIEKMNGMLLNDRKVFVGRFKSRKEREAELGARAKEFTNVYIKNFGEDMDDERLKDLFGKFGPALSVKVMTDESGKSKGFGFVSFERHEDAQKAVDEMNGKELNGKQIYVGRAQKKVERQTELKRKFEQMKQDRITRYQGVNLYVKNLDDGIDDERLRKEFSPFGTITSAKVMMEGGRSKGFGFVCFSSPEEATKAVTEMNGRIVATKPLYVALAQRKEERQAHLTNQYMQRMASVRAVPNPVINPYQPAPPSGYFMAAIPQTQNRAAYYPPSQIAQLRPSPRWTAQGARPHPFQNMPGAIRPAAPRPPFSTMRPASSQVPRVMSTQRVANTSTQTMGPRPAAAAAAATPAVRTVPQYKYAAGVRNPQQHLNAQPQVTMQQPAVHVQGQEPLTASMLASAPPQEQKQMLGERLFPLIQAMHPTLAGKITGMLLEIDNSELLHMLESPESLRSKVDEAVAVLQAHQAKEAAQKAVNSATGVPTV
Cytochrome P450 2D6, sequence (P10635 whole entry, the tested form may be a part): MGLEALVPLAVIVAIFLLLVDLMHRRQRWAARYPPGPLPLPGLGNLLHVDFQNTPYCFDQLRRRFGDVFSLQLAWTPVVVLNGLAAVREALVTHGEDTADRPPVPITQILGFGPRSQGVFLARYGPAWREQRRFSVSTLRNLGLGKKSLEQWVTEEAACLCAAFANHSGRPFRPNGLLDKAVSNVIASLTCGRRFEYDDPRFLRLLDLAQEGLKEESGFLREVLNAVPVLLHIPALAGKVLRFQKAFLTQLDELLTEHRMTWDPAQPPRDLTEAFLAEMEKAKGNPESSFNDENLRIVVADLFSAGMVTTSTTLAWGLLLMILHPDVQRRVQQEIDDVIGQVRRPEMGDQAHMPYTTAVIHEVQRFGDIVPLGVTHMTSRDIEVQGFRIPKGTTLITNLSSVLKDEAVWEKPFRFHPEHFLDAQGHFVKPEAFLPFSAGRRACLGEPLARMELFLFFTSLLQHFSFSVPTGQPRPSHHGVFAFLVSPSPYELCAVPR

## CCCc1cc(C(=O)NN=C(S)NCc2ccccc2)cs1
[1]
  IC50: 12.9 µM (active)

## Cc1ccccc1OCCCCn1cnc2ccccc21
INS1
  AC50: 6.87 µM (active)
[2]
  AC50: 4.16 µM (active)

## CCOc1ccc(NC(=O)C2CC=CCC2C(=O)O)cc1 (stereo not drawn)
Leucine aminopeptidase
  IC50: 10.5 µM (active)

## COc1ccc(N=Nc2cc(OC)c(N)cc2OC)cc1
Nonstructural protein 1
  IC50: 35.3 µM (active)
[3]
  IC50: 35.2 µM (active)

## O=C(c1ccc2c(c1)OCO2)N1CCN=C1SCc1cccnc1
[4]
  AC50: 0.076 µM (active)

## O=[N+]([O-])c1ccc2[nH]c3c(c2c1)CCCC3
[4]
  AC50: 15.6 µM (active)

## Cc1cc(C)c(NC(=O)CN2C(=O)NC3(CCCCC3)C2=O)c(C)c1
Leucine aminopeptidase
  IC50: 19.5 µM (active)

## CC(=O)N(C)c1ccc(OCC(O)CN(c2ccccc2C)S(=O)(=O)c2ccc(C)cc2)cc1 (stereo not drawn)
[1]
  IC50: 11.8 µM (active)

## COc1ccc(-c2sc3cc4c(cc3c2C#CC2(N)CCCCC2)OCO4)cc1
[5]
  AC50: 1.48 µM (active)
[6]
  IC50: > 20 µM (inactive)

## O=C(COC(=O)c1ccccc1Nc1cccc(C(F)(F)F)c1)NCc1ccco1
Cytochrome P450 2D6
  AC50: 10 µM (inconclusive)
[7]
  IC50: 6.38 µM (active)

## Cc1ccccc1-c1nc(S(=O)(=O)c2ccccc2)c(N2CCCC2)o1
[8]
  IC50: > 66 µM (inactive)
[9]
  IC50: > 66 µM (inactive)

## CCOc1ccc(-c2nc(C#N)c(N3CCN(Cc4ccccc4)CC3)o2)cc1
Nonstructural protein 1
  IC50: > 100 µM (active)

## O=C(Cn1cncn1)N/N=C/c1cc([N+](=O)[O-])ccc1O
Nonstructural protein 1
  IC50: 3.9 µM (active)

## Cc1oc(C(C)(C)C)cc1C(=O)NC(Cc1ccccc1)C(=O)O (stereo not drawn)
Leucine aminopeptidase
  IC50: 12.7 µM (active)

## Cc1ccnc2c1ccc1cccnc12
Nonstructural protein 1
  IC50: 0.736 µM (active)
[10]
  IC50: > 80 µM (inactive)

## O=[N+]([O-])c1ccc(S(=O)(=O)Nc2ccc3c(c2)OCCO3)cc1
[8]
  IC50: > 66 µM (inactive)
[9]
  IC50: > 66 µM (inactive)

## COc1ccc(/C=C2\N=C(c3ccccc3)N(c3ccc(C(=O)O)cc3)C2=O)cc1OC
[1]
  IC50: 12.6 µM (active)

## C/C(=N\NC(=N)N)c1ccccc1
[1]
  IC50: 13.5 µM (active)

## CC(=O)Nc1ccc(S(=O)(=O)NNC(=O)C(=O)NNc2ccccn2)cc1
[6]
  IC50: > 20 µM (inactive)
[11]
  EC50: > 300 µM (not active)

## C[C@H]1CN([C@@H](C)CO)C(=O)c2cc(NC(=O)Nc3ccc4c(c3)OCO4)ccc2O[C@H]1CN(C)S(=O)(=O)c1ccc(F)cc1
[12]
  AC50: 15.2 µM (active)
[2]
  AC50: 39 µM (active)

## CC(C)NC(=O)Nc1ccc2c(c1)C(=O)N(C)[C@H]1CC[C@H](CC(=O)Nc3ccccc3)O[C@H]1CO2
[13]
  AC50: 1.25 µM (active)
[14]
  AC50: 1.23 µM (active)
[15]
  AC50: 1.26 µM (active)
[16]
  AC50: 1.23 µM (active)

## CCOc1ccccc1C(O)C1=CC(=O)c2ccccc2C1=O (stereo not drawn)
[7]
  IC50: 4.16 µM (active)

## Cn1c(=O)c2c(nc(N/N=C/c3ccncc3)n2Cc2ccccc2)n(C)c1=O
[4]
  AC50: 0.628 µM (active)

## O=C(O)C12CC3CC(C1)CC(n1ncc(NCc4ccccc4)c(Cl)c1=O)(C3)C2
Leucine aminopeptidase
  IC50: 90 µM (active)

## COc1cc(/C=C/C(=O)Nc2nnc(CC(C)(C)C)s2)cc(OC)c1OC
[8]
  IC50: > 66 µM (inactive)
[9]
  IC50: > 66 µM (inactive)

## Cc1nc(SCC(=O)NC(=O)NC2CCCCC2)nc(C)c1C
[1]
  IC50: 12.7 µM (active)

## Cc1cc2ncn(-c3ncccc3[N+](=O)[O-])c2cc1C
[8]
  IC50: > 66 µM (inactive)
[9]
  IC50: > 66 µM (inactive)

## O=C(NC(=S)Nc1cccc(Cl)c1N1CCOCC1)c1cccs1
[8]
  IC50: > 66 µM (inactive)
[9]
  IC50: > 66 µM (inactive)

## Cc1ccn2cc(-c3cccc(NC(=O)CCC(=O)O)c3)nc2c1
[4]
  AC50: 0.618 µM (active)

## CC(=O)c1c(C)[nH]c(C(=O)OCC(=O)Nc2ccc(Cl)c(S(=O)(=O)N(C)C)c2)c1C
[12]
  AC50: 2.76 µM (active)
[2]
  AC50: 40.4 µM (active)

## COc1cc(O)c(C(CCN2CCCCC2)c2ccc(N(C)C)cc2)c(OC)c1 (stereo not drawn)
[4]
  AC50: 1.83 µM (active)

## CCOc1ccc(NC(=O)CSc2nnc(CCNC(=O)c3ccc(OC)cc3)n2CC)cc1
Leucine aminopeptidase
  IC50: 8.71 µM (active)
